From patent publication US7456170B2, “Triazolobenzodiazepines and their use as vasopressin antagonists” (Pfizer Inc., priority 2004, dated 2008)
Where two headings read alike, the source gives them in different places.

Biological target: human V1A receptor (Homo sapiens, UniProt P37288)
Test: V1A filter binding assay ([3H]-AVP binding to CHO-hV1A membranes)
Procedure: 1.0 V1A Filter Binding Assay
Receptor binding assays were performed on cellular membranes prepared from CHO cells stably expressing the human V1A receptor, (CHO-hV1A). The CHO-hV1A cell line was kindly provided under a licensing agreement by Marc Thibonnier, Dept. of Medicine, Case Western Reserve University School of Medicine, Cleveland, Ohio, CHO-hV1A cells were routinely maintained at 37° C. in humidified atmosphere with 5% CO2 in DMEM/Hams F12 nutrient mix supplemented with 10% fetal bovine serum, 2 mM L-glutamine, 15 mM HEPES and 400 μg/ml G418. For bulk production of cell pellets, adherent CHO-hV1A cells were grown to confluency of 90-100% in 850 cm^2 roller bottles containing a medium of DMEM/Hams F12 Nutrient Mix supplemented with 10% fetal bovine serum, 2 mM L-gitidtamine and 15 mM HEPES. Confluent CHO-hV1A cells were washed with phosphate-buffered saline (PBS), harvested into ice cold PBS and centrifuged at 1,000 rpm. Cell pellets were stored at −80° C. until use. […] Protein concentration was determined using Bradford reagent and BSA as a standard.
Protein linearity followed by saturation binding studies were performed on each new batch of membrane. […] Saturation binding studies were then performed using various concentrations of [^3H]-arginine vasopressin, [^3]-AVP (0.05 nM-100 nM) and the Kd and Bmax determined.
Compounds were tested for their effects on [^3H]-AVP binding to CHO-hV1A membranes, (^3H-AVP; specific activity 65.5 Ci/mmol: NEN Life Sciences). […] The plates were sealed and counted on a TopCount Microplate Scintillation Counter (Packard Instruments). Non-specific binding (NSB) was determined using 1 μM unlabelled d(CH2)5Tyr(Me)AVP ([β-mercapto-β,β-cyclopentamethylenepropionyl,0-Me-Tyr^2,Arg^8]-vasopressin) (βMCPVP), (Sigma). The radioligand binding data was analysed using a four parameter logistic equation with the min forced to 0%. […] Specific binding was calculated by subtracting the mean NSB cpm from the mean Total cpm. For test compounds the amount of ligand bound to the receptor was expressed as % bound=(sample cpm−mean NSB cpm)/specific binding cpm×100. […]

[1] = [3H]-AVP binding to CHO-hV1A membranes, screen 1.0, read-out: Ki

Chain of human V1A receptor (P37288 whole entry): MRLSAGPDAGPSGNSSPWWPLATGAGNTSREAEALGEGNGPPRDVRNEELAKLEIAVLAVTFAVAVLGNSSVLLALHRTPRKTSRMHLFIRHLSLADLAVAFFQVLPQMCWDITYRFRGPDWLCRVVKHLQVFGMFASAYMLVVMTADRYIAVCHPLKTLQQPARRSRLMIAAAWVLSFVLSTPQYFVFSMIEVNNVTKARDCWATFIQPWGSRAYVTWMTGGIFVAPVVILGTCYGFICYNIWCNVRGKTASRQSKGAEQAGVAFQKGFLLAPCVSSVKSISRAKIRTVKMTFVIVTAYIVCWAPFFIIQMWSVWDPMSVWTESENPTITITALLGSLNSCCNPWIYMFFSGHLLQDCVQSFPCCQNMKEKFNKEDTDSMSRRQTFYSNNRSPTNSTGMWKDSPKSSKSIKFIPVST

Compound	Ki [pM]	Ki [1] [pM]
CS(=O)(=O)N1Cc2cc(Cl)ccc2-n2c(nnc2N2CCC(c3ccccn3)CC2)C1 [Example 3, 8-Chloro-5-(methylsulfonyl)-1-(4-pyridin-2-ylpiperidin-1-yl)-5,6-dihydro-4H-[1,2,4]triazolo[4,3-a][1,4]benzodiazepine]	620	
CS(=O)(=O)N1Cc2cc(Cl)ccc2-n2c(nnc2N2CCC(c3ccccc3)CC2)C1 [Example 6, 8-Chloro-5-(methylsulfonyl)-1-(4-phenylpiperidin-1-yl)-5,6-dihydro-4H-[1,2,4]triazolo[4,3-a][1,4]benzodiazepine]		170
CN(C)S(=O)(=O)N1Cc2cc(Cl)ccc2-n2c(nnc2N2CCC(c3ccccc3)CC2)C1 [Example 8, 8-Chloro-N,N-dimethyl-1-(4-phenylpiperidin-1-yl)-4H-[1,2,4]triazolo[4,3-a][1,4]benzodiazepine-5(6H)-sulphonamide]		360
